For this test, the system named is BDF1 mice, P388/ADR leukemia ip, median survival T/C. Briefly: NCI In Vivo Anticancer Drug Screen. Data for tumor model P388 Leukemia resistant to Adriamycin; NSC 123127, Developed at Scr 06 and 41 (intraperitoneal) in B6D2F1 (BDF1) mice. The following applies: endpoint: median survival time, higher = longer survival. On the procedure: The antitumor activity of compounds was measured in mice bearing transplantable tumors. Survival or tumor size were measured and the results are expressed as the measurement made in the treated group (T) divided by the measurement made in the vehicle treated control group (C). The tumor model used in this assay is P388 Leukemia resistant to Adriamycin; NSC 123127, Developed at Scr 06 and 41 (intraperitoneal) in B6D2F1 (BDF1) mice

Each structure is given as a SMILES string. Several values for one entry are separate records, joined by “and”; a condition that tells them apart may be missing. Equal entries are not always repeated. Toxic doses and inconclusive results are not listed. Starred links: 1 amine or outer side, 2 acyl side, 3 side chain; linkers in the order of their positions; H or OH if unused. Positions of bridges follow the written chain, without caps; N, C: chain ends. Non-standard residues stand in square brackets, D forms with d. Residues, ends and D or L forms follow the SMILES beside them. Chains are numbered I, II in the order given. Actinocin(9to1) = Cc1c2oc3c(C)ccc(C(=O)[*:1])c3nc-2c(C(=O)[*:2])c(N)c1=O; NMeV = CN[CH](C(=O)O)C(C)C; Aze = O=C(O)[CH]1CCN1; Sar = CNCC(=O)O

Take `NC(CSC(c1ccccc1)(c1ccccc1)c1ccccc1)C(=O)O` (configuration not stated): the T/C runs as follows: (dose: 24.0 mg/kg/injection, schedule: Q01DX009 (ip), vehicle: other) 100 % of control; (dose: 40.0 mg/kg/injection, schedule: Q01DX009 (ip), vehicle: other) 106 % of control.
Turning to `CC[C@@]1(O)C[C@H](OC2CC(N(C)C)C(O)C(C)O2)c2c(cc3c(c2O)C(=O)c2c(O)ccc(O)c2C3=O)[C@H]1C(=O)OC` (some centres not stated), the T/C was 110 % of control (dose: 4.32 mg/kg/injection, schedule: Q04DX003 (ip), vehicle: other); 109 % of control (dose: 7.2 mg/kg/injection, schedule: Q04DX003 (ip), vehicle: other); 104 % of control (dose: 12.0 mg/kg/injection, schedule: Q04DX003 (ip), vehicle: other); 110 % of control (dose: 20.0 mg/kg/injection, schedule: Q04DX003 (ip), vehicle: other).
As for `CC[C@]1(O)C[C@H](OC2CC(N(C)C)C(OC3CC(O)C(O)C(C)O3)C(C)O2)c2c(cc3c(c2O)C(=O)c2c(O)ccc(O)c2C3=O)[C@H]1C(=O)OC` (some centres not stated), the T/C runs as follows: (dose: 3.46 mg/kg/injection, schedule: Q04DX003 (ip), vehicle: other) 106 % of control; (dose: 5.76 mg/kg/injection, schedule: Q04DX003 (ip), vehicle: other) 102 % of control; (dose: 9.6 mg/kg/injection, schedule: Q04DX003 (ip), vehicle: other) 93 % of control.
`CO[C@H]1C[C@](C)(O)Cc2cc3c(c(O)c21)C(=O)c1c(O)cc2c(c1C3=O)O[C@@H]1O[C@@]2(C)[C@H](O)[C@@H](N(C)C)[C@@H]1O`: the T/C is, setting by setting: (dose: 18.0 mg/kg/injection, schedule: Q04DX003 (ip), vehicle: lactate) 112 % of control; (dose: 30.0 mg/kg/injection, schedule: Q04DX003 (ip), vehicle: lactate) 116 % of control; (dose: 50.0 mg/kg/injection, schedule: Q04DX003 (ip), vehicle: lactate) 94 % of control.
Take `O=C1c2ccccc2C(=O)c2c(NCCNCCO)ccc(NCCNCCO)c21`: the T/C by setting is: (dose: 13.0 mg/kg/injection, schedule: Q04DX003 (ip), vehicle: saline + alcohol) 105 % of control; (dose: 21.6 mg/kg/injection, schedule: Q04DX003 (ip), vehicle: saline + alcohol) 104 % of control; (dose: 36.0 mg/kg/injection, schedule: Q04DX003 (ip), vehicle: saline + alcohol) 98 % of control.
Turning to `O=C1N[C@@H]([C@H]2CC[C@H](Cl)CN2)C(=O)N[C@H]1[C@H]1CC[C@H](Cl)CN1`, the T/C was 158 % of control (dose: 1.44 mg/kg/injection, schedule: Q04DX003 (ip), vehicle: water); 213 % of control (dose: 2.4 mg/kg/injection, schedule: Q04DX003 (ip), vehicle: water); 221 % of control (dose: 4.0 mg/kg/injection, schedule: Q04DX003 (ip), vehicle: water); 122 % of control (dose: 6.67 mg/kg/injection, schedule: Q04DX003 (ip), vehicle: water).
Turning to `CO[C@H](C(=O)[C@@H](O)[C@@H](C)O)[C@@H]1Cc2cc3cc(OC4CC(OC5CC(O)C(O)C(C)O5)C(O)C(C)O4)c(C)c(O)c3c(O)c2C(=O)[C@H]1OC1CC(OC2CC(OC3CC(C)(O)C(O)C(C)O3)C(O)C(C)O2)C(O)C(C)O1` (some centres not stated), the T/C was 91 % of control (dose: 0.32 mg/kg/injection, schedule: Q01DX005 (ip), vehicle: water); 95 % of control (dose: 0.54 mg/kg/injection, schedule: Q01DX005 (ip), vehicle: water); 89 % of control (dose: 0.65 mg/kg/injection, schedule: Q04DX003 (ip), vehicle: water).
On to `CC[C@@]1(O)C[C@H](OC2CC(N(C)C)C(OC3CC(O)C(OC4CC(O)C(O)C(C)O4)C(C)O3)C(C)O2)c2c(cc3c(c2O)C(=O)c2c(O)ccc(O)c2C3=O)[C@H]1C(=O)OC` (some centres not stated), for which the T/C is, setting by setting: (dose: 1.08 mg/kg/injection, schedule: Q04DX003 (ip), vehicle: water) 106 % of control; (dose: 1.8 mg/kg/injection, schedule: Q04DX003 (ip), vehicle: water) 109 % of control; (dose: 3.0 mg/kg/injection, schedule: Q04DX003 (ip), vehicle: water) 120 % of control.
As for `CCCCC(=O)OCC(=O)[C@]1(O)Cc2c(O)c3c(c(O)c2[C@@H](OC2CC(NC(=O)C(F)(F)F)C(O)C(C)O2)C1)C(=O)c1c(OC)cccc1C3=O` (some centres not stated), the T/C was 105 % of control (dose: 13.0 mg/kg/injection, schedule: Q01DX004 (ip), vehicle: saline with Tween-80); 120 % of control (dose: 15.1 mg/kg/injection, schedule: Q04DX003 (ip), vehicle: other); 113 % of control (dose: 21.0 mg/kg/injection, schedule: Q01DX004 (ip), vehicle: saline with Tween-80); 119 % of control (dose: 25.2 mg/kg/injection, schedule: Q04DX003 (ip), vehicle: other); 122 % of control (dose: 42.0 mg/kg/injection, schedule: Q04DX003 (ip), vehicle: other); 155 % of control (dose: 70.0 mg/kg/injection, schedule: Q04DX003 (ip), vehicle: other).
As for `CC1CC(C)(O)CC(C(O)CC2CC(=O)NC(=O)C2)C1=O` (configuration not stated), the T/C was 120 % of control (dose: 0.72 mg/kg/injection, schedule: Q04DX003 (ip), vehicle: saline); 124 % of control (dose: 0.78 mg/kg/injection, schedule: Q04DX003 (ip), vehicle: saline); 91 % of control (dose: 2.16 mg/kg/injection, schedule: Q04DX003 (ip), vehicle: saline); 103 % of control (dose: 173.0 micrograms/kg/injection, schedule: Q01DX009 (ip), vehicle: saline); 112 % of control (dose: 288.0 micrograms/kg/injection, schedule: Q01DX009 (ip), vehicle: saline); 92 % of control (dose: 480.0 micrograms/kg/injection, schedule: Q01DX009 (ip), vehicle: saline).
Consider `Cc1c(N)nc([C@H](CC(N)=O)NC[C@H](N)C(N)=O)nc1C(=O)N[C@H](C(=O)N[C@H](C)[C@@H](O)[C@H](C)C(=O)N[C@H](C(=O)NCCc1nc(-c2nc(C(=O)NCCC[S+](C)C)cs2)cs1)[C@@H](C)O)C(OC1OC(CO)C(O)C(O)C1OC1OC(CO)C(O)C(OC(N)=O)C1O)c1cnc[nH]1` (some centres not stated), for which the T/C by setting is: (dose: 2.88 mg/kg/injection, schedule: Q01DX009 (ip), vehicle: saline) 105 % of control; (dose: 4.8 mg/kg/injection, schedule: Q01DX009 (ip), vehicle: saline) 107 % of control; (dose: 6.5 mg/kg/injection, schedule: Q01DX009 (ip), vehicle: saline) 110 % of control; (dose: 8.0 mg/kg/injection, schedule: Q01DX009 (ip), vehicle: saline) 105 % of control; (dose: 10.8 mg/kg/injection, schedule: Q01DX009 (ip), vehicle: saline) 93 % of control; (dose: 13.33 mg/kg/injection, schedule: Q01DX009 (ip), vehicle: saline) 103 % of control. Besides, the T/C (dose: 13.33 mg/kg/injection, schedule: Q04DX003 (ip), vehicle: saline) was 103 % of control; the T/C (dose: 18.0 mg/kg/injection, schedule: Q01DX009 (ip), vehicle: saline) is 95 % of control; the T/C (dose: 22.22 mg/kg/injection, schedule: Q04DX003 (ip), vehicle: saline) was 110 % of control; the T/C (dose: 30.0 mg/kg/injection, schedule: Q01DX009 (ip), vehicle: saline) was 90 % of control; the T/C (dose: 37.0 mg/kg/injection, schedule: Q04DX003 (ip), vehicle: saline) is 98 % of control.
Take `COc1cccc2c1C(=O)c1c(O)c3c(c(O)c1C2=O)C[C@@](O)(C(C)=O)C[C@@H]3OC1CC(N)C(O)C(C)O1` (some centres not stated): the T/C (dose: 1.73 mg/kg/injection, schedule: Q04DX003 (ip), vehicle: water) is 122 % of control; the T/C (dose: 2.88 mg/kg/injection, schedule: Q04DX003 (ip), vehicle: water) was 114 % of control; the T/C (dose: 4.8 mg/kg/injection, schedule: Q04DX003 (ip), vehicle: water) is 121 % of control; the T/C (dose: 8.0 mg/kg/injection, schedule: Q04DX003 (ip), vehicle: water) was 104 % of control and 107 % of control.
Take `CC1OC(O[C@H]2/C=C/C=C/C=C/C=C/C=C/C=C/C=C/[C@H](C)[C@@H](O)[C@@H](C)[C@H](C)OC(=O)C[C@H](O)C[C@H](O)CC[C@@H](O)[C@H](O)C[C@H](O)C[C@]3(O)C[C@H](O)[C@@H](C(=O)O)[C@H](C2)O3)C(O)C(N)C1O` (some centres not stated): for the setting “dose: 20.0 mg/kg/injection, schedule: Q04DX003 (ip), vehicle: clinical formulation”, the T/C is 93 % of control.
For the molecule `Cc1c2oc3c(C)ccc(C(=O)NC4C(=O)NC(C(C)C)C(=O)N5CCC5C(=O)N(C)CC(=O)N(C)C(C(C)C)C(=O)OC4C)c3nc-2c(C(=O)NC2C(=O)NC(C(C)C)C(=O)N3CCC3C(=O)N(C)CC(=O)N(C)C(C(C)C)C(=O)OC2C)c(N)c1=O` (configuration not stated) (I: TV[Aze][Sar][NMeV] / II: TV[Aze][Sar][NMeV]; ester I:1-I:C, II:1-II:C; linker I:N-II:N via Actinocin(9to1); configuration not given here), the T/C by setting is: (dose: 216.0 micrograms/kg/injection, schedule: Q01DX003 (ip), vehicle: saline + alcohol) 110 % of control; (dose: 360.0 micrograms/kg/injection, schedule: Q01DX003 (ip), vehicle: saline + alcohol) 103 % of control; (dose: 600.0 micrograms/kg/injection, schedule: Q01DX003 (ip), vehicle: saline + alcohol) 104 % of control; (dose: 1000.0 micrograms/kg/injection, schedule: Q01DX003 (ip), vehicle: saline + alcohol) 86 % of control.

The record behind these values is PubChem BioAssay AID182 (DTP/NCI, 2004).
